Results reported in US9345682B2, “Inhibition of STAT3 signal transduction for human cancer therapy” (University of South Florida, priority 1999, dated 2016).

How the values were obtained:
[1] = set-up: species or system mice; conditions: mouse, in vivo
Protocol: FIG. 7: AG490 Blocks Tumorigenicity of Breast Carcinoma Cells. Nude mice are engrafted with MDA-MB-468 tumor cells, and then treated with AG490 by mini-pump infusion (42 mpk) and daily intraperitoneal injections (50 mpk).
AG490 is administered by continuous infusion using subcutaneous mini-pumps supplemented with intraperitoneal injections.

U266 cells = assay: Cell cycle analysis and spontaneous cell death of U266 cells; type: cell-based, human
Protocol: For surface detection of the Fas receptor, 10^6 cells are suspended in […] PBS with 2.5 mg/ml mouse IgM (Sigma) and […] UB2 antibody (MBL) or IgG1, isotype control serum (Dako). Following 30 min incubation at room temperature, cells are washed with PBS, and incubated in the dark for 30 min with goat anti-mouse Ig-FITC. Fluorescence is measured on a FACScan flow cytometer and analyzed using CellQuest software (Becton Dickinson). For cell cycle analysis, 10^6 cells are fixed in ice-cold ethanol for a minimum of 2 h, washed with PBS, and stained with 5 mg/ml propidium iodide (PI) and […] at 37° C. for 30 min prior to analysis by flow cytometry. Sensitivity to Fas-mediated apoptosis is determined by exposing cells to 500 ng/ml agonistic antibody (CH-11, MBL) or 100 ng/ml Fas ligand (Alexis) for 18-24 h. Apoptosis is measured by staining with Annexin V-FITC (Clontech) and flow cytometry analysis. Fas-specific death is calculated as (% Annexin V positive cells in the CH-11 treated population)−(% Annexin V positive cells in the IgM control population). Programmed cell death in cells transfected with the bicistronic green fluorescent protein vectors (pIRES-EGFP or pIRES-Stat3b) is analyzed after staining with Annexin V-PE (Pharmingen) by two color flow cytometry analysis. […]

MOPC tumors = assay: MOPC myeloma tumor growth in vivo; set-up: species or system BALB/c mice
Protocol: Mice and tumor formation in vivo. Six- to eight-week old female BALB/c mice are obtained from the National Cancer Institute (Frederick, Md.). Cohorts of 3-5 mice per group are used for these experiments. Mice are shaved on the right flank and injected subcutaneously (s.c.) with 5×10^5 of either MOPC or MPC11 cells in […] of PBS to induce tumors.
In vivo treatment with AG-490 and IL-12. When tumors reach about 5 […] in diameter, AG-490 treatment of tumors is initiated and continued daily for 7-10 days. For MOPC tumors, injections of 0.85 mg/day of AG-490 are given intratumorally, supplemented with 0.5 mg/day of AG-490 i.p. For MPC11 tumors, the intratumoral treatment is halved while the i.p. dose remains the same. Control mice receive 50% DMSO vehicle alone in the same volume as the AG-490 treatment group. Recombinant IL-12 is given s.c. at either 100 ng or 200 ng every other day. Tumor growth is monitored daily by measuring two perpendicular tumor diameters with a caliper, and tumor volume was calculated according to the formula V=0.52*a*b(a+b)/2 (a=smallest superficial diameter; b=largest superficial diameter).

splenocytes = assay: IL-12-induced IFN-g production by splenocytes ex vivo; type: in vivo; conditions: mice treated i.p. with AG-490 (0.5 mg) daily 4 days, rIL-12 last two days
Protocol: Mice are treated daily with i.p. injections of […] of AG-490 (0.5 mg) or DMSO vehicle (50%) for a total of 4 days. During the last two days of AG-490 or DMSO treatment, daily i.p. injection of 400 ng of recombinant IL-12 (rIL-12) (Genetics Institute, Cambridge, Mass.) is also given simultaneously with either AG-490 or DMSO. Two days after the last treatment of AG-490, single cell suspensions of splenocytes are prepared from individual mice. The splenocytes are treated with 100 U/ml rIL-2 to induce IFN-g production. IFN-g ELISA (Genzyme, Cambridge, Mass.) is performed as described previously (Tan, et al., 1996, Cancer Res 56:3399).

STAT3 = assay: EMSA (SIE probe) of constitutive STAT3 DNA-binding in U266 myeloma cells; type: cell-based, human; conditions: 50 mM AG490, within 16 to 24 hours
Protocol: U266 and RPMI 8226 cell lines are originally obtained from ATCC and maintained in RPMI 1640 medium supplemented with 10% fetal calf serum (FCS). For detection of STATs in primary bone marrow (BM) cells, BM aspirates are diluted 1:2 in phosphate-buffered saline (PBS) and mononuclear cells are separated by the standard Ficoll-Hypaque (Pharmacia LKB Biotechnology) sedimentation procedure. Mononuclear cells are washed twice with PBS, and nuclear extracts are prepared as described below. For inhibitor studies, a minimum of 10^7 U266 cells are treated with 1 mg/ml Sant7 or with […] AG490 (Meydan, et al., 1996, Nature 379:645-648). NIH 3T3 cells overexpressing the human EGF receptor have been described (Garcia, et al., 1997, Immunity 5:449-460).
Nuclear extracts are prepared as previously described. Briefly, nuclei are isolated and extracted in hypertonic buffer (20 mM HEPES, pH 7.9, 420 mM NaCl, 1 mM EDTA, 1 mM EGTA, 20% glycerol, 20 mM NaF, 1 mM Na3VO4, 1 mM Na2P4O7, 1 mM DTT, 0.5 mM PMSF, 0.1 mM aprotinin, 1 mM leupeptin, and 1 mM antipain). […] Protein-DNA complexes are resolved on 5% non-denaturing polyacrylamide gels and analyzed by autoradiography. […]

N#C/C(=C\c1ccc(O)c(O)c1)C(=O)NCc1ccccc1 [AG490]
toxicity in animals [1]: not detectably toxic
spontaneous cell death (U266 cells; AG490, 72 hours): extensive spontaneous cell death
cells accumulating in G1 (U266 cells; AG490 for 48 h): 70%
time to complete regression of all treated tumors (MOPC tumors; 5-mm pre-existing MOPC tumors, AG-490 0.85 mg/day intratumorally plus 0.5 mg/day i.p.): 3 to 8 days
tumor regrowth after regression (MOPC tumors; MOPC tumors, AG-490 treated mice): tumor regrowth is observed in all of the AG-490 treated mice except for one
IL-12-induced IFN-g production by splenocytes (splenocytes): slight suppression
constitutive STAT3 DNA-binding activity (STAT3): complete abrogation
